# Test results reported in patent publication US11578061B2, “Inhibitors of LRRK2 kinase” (Halia Therapeutics, Inc., priority 2021, dated 2023).
# Biological target: recombinant human LRRK2 (catalytic domain only [amino acids 970-2527], GST-tagged) (Homo sapiens (Human), UniProt Q5S007)
# Test: LRRK2 Enzymatic Assay
# Format: biochemical
# Conditions: LRRKtide substrate, [32P]-ATP
# Protocol: LRRKtide substrate (peptide sequence RLGRDKYKTLRQIRQ, derived from human ezrin [amino acids 561-573], moesin [amino acids 539-553] and radixin [amino acids 558-570], obtained from SignalChem, catalogue #L10-58, reconstituted in 20 mM Tris-HCl at pH 7.5 to a final concentration of 1 mg/mL, assay concentration 20 μM) and recombinant human LRRK2 (catalytic domain only [amino acids 970-2527], GST-tagged, expressed in insect cells, obtained from ThermoFisher Scientific, catalogue #PV4874, 0.35 mg/mL, assay concentration 30 nM) were mixed in assay buffer (20 mM Hepes pH 7.5, 10 mM MgCl2, 1 mM EGTA, 0.02% Brij35, 0.02 mg/ml BSA, 0.1 mM Na3VO4, 2 mM DTT, 1% DMSO). Compounds of interest (in DMSO, serial 3-fold dilution from 10 μM to 0.5 nM) or control (1% DMSO) were dispensed into the kinase reaction mixture by Acoustic technology (Echo550; nanoliter range). After incubation at room temperature for 20 minutes, the kinase reaction was initiated by addition of [^32P]-ATP (Specific activity 10 μCi/μl) and the mixture was incubated at room temperature for 2 hours. The reaction was then stopped by spotting the reaction mixture on strips of phosphocellulose P81 paper. Following washing, the radioactivity of the P81 paper was measured and kinase activity data were expressed as the percent remaining kinase activity in test samples compared to vehicle (dimethyl sulfoxide) reactions. IC50 values and curve fits were obtained using Prism (GraphPad Software).
# Sequence of recombinant human LRRK2 (catalytic domain only [amino acids 970-2527], GST-tagged) (Q5S007 970-2527): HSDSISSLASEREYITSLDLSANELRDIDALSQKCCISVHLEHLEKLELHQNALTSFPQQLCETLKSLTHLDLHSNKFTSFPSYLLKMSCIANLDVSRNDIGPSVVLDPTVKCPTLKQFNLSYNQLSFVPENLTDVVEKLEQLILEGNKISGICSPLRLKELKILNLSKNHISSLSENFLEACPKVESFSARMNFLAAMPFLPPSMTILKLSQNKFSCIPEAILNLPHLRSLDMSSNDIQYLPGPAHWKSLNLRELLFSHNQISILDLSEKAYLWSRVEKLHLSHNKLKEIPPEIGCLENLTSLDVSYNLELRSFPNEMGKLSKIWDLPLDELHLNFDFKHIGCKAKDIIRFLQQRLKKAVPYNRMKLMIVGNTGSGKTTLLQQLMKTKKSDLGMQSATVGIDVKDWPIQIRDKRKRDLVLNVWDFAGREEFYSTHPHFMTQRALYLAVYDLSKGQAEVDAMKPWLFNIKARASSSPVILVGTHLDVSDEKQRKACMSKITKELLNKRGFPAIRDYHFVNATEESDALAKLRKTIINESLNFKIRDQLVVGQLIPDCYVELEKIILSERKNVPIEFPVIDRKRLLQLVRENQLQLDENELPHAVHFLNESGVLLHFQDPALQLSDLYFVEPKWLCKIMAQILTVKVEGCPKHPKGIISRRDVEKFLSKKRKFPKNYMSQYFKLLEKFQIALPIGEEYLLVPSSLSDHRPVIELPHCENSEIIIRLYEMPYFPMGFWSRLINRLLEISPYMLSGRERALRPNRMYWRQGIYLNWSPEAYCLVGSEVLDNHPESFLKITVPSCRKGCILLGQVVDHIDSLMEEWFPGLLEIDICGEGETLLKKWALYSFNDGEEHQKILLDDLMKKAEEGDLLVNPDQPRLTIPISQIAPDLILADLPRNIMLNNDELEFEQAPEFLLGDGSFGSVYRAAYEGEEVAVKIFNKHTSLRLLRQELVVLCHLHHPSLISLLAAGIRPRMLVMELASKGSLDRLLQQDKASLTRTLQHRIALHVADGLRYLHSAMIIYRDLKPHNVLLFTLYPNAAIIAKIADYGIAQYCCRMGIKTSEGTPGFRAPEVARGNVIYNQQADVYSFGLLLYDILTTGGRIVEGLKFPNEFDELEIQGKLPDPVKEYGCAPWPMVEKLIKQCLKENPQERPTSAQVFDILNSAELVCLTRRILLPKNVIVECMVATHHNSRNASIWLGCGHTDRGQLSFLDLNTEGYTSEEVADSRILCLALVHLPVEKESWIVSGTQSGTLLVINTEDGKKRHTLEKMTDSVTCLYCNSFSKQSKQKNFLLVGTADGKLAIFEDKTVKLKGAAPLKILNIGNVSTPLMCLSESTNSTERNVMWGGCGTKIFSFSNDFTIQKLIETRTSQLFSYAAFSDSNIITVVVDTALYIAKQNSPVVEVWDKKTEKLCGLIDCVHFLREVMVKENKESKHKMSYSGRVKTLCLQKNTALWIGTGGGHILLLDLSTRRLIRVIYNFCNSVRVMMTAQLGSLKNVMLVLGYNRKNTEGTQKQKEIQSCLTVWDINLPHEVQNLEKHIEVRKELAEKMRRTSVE
row,Compound,IC50 [nM]
1,"NC1CCCC(COc2ccnc(Nc3ccc(N4CCOCC4)cc3)n2)C1 (stereo not drawn) [Example 11, 4-((3-aminocyclohexyl)methoxy)-N-(4-morpholinophenyl) pyrimidin-2-amine]",50 to 200
2,"N[C@H]1CC[C@@H](COc2ccnc(Nc3ccc(N4CCOCC4)cc3)n2)C1 [Example 15, 4-(((1R,3S)-3-aminocyclopentyl)methoxy)-N-(4-morpholinophenyl) pyrimidin-2-amine]",50 to 200
3,"c1cc(OCC2CCNCC2)nc(Nc2ccc(N3CCOCC3)cc2)n1 [Example 17, N-(4-morpholinophenyl)-4-(piperidin-4-ylmethoxy)pyrimidin-2-amine]",200 to 400
4,"Cc1nn(C(C)(C)C#N)cc1Nc1ncc(F)c(OCC2CCNCC2)n1 [Example 18, 2-(4-((5-fluoro-4-(piperidin-4-ylmethoxy)pyrimidin-2-yl)amino)-3-methyl-1H-pyrazol-1-yl)-2-methylpropanenitrile]",50 to 200
5,"Cc1nn(C(C)(C)C#N)cc1Nc1nccc(OCC2(F)CCNCC2)n1 [Example 19, 2-(4-((4-((4-fluoropiperidin-4-yl)methoxy)pyrimidin-2-yl)amino)-3-methyl-1H-pyrazol-1-yl)-2-methylpropanenitrile]",200 to 400
6,"Fc1cnc(Nc2ccc(N3CCOCC3)cc2)nc1OCC1(F)CCNCC1 [Example 24, 5-fluoro-4-((4-fluoropiperidin-4-yl)methoxy)-N-(4-morpholinophenyl) pyrimidin-2-amine]",50 to 200
7,"Cc1nn(C2CC(C#N)C2)cc1Nc1ncc(Cl)c(OCC2CCNCC2F)n1 (stereo not drawn) [Example 26, 3-(4-((5-chloro-4-((3-fluoropiperidin-4-yl)methoxy)pyrimidin-2-yl)amino)-3-methyl-1H-pyrazol-1-yl)cyclobutane-1-carbonitrile]",50 to 200
8,"Cc1nn(C(C)(C)C#N)cc1Nc1ncc(Cl)c(OCC2CNC2)n1 [Example 27, 2-(4-((4-(azetidin-3-ylmethoxy)-5-chloropyrimidin-2-yl)amino)-3-methyl-1H-pyrazol-1-yl)-2-methylpropanenitrile]",> 400
9,CN[C@H]1CC[C@H](COc2ccnc(Nc3cnn(C(C)C)c3)n2)CC1 [Example 33],> 400
10,"CN[C@H]1CC[C@H](COc2ccnc(Nc3cc(F)c(C(=O)N4CCOCC4)cc3OC)n2)CC1 [Example 34, (2-fluoro-5-methoxy-4-((4-(((1R,4R)-4-(methylamino)cyclo-hexyl)methoxy)py-rimidin-2-yl)amino)phenyl) (morpholino) methanone]",50 to 200
11,"CN[C@H]1CC[C@H](COc2nc(Nc3cn(C(C)(C)C#N)nc3C)ncc2OC)CC1 [Example 37, 2-(4-((5-methoxy-4-(((1R,4R)-4-(methylamino)cyclo-hexyl)methoxy)py-rimidin-2-yl)amino)-3-methyl-1H-pyrazol-1-yl)-2-methylpropanenitrile]",< 50
12,"CN[C@H]1CC[C@H](COc2nc(Nc3ccc(N4CCOCC4)cc3)ncc2Cl)CC1 [Example 38, 5-chloro-4-(((1R,4R)-4-(methylamino)cyclo-hexyl)methoxy)-N-(4-morpholinophenyl) pyrimidin-2-amine]",< 50
13,"CN[C@H]1CC[C@H](COc2nc(Nc3cn(C(C)(C)C#N)nc3C)ncc2Cl)CC1 [Example 39, 2-(4-((5-chloro-4-(((1R,4R)-4-(methylamino)cyclo-hexyl)methoxy)py-rimidin-2-yl)amino)-3-methyl-1H-pyrazol-1-yl)-2-methylpropanenitrile]",< 50
14,"CN[C@H]1CC[C@H](COc2nc(Nc3cn(C4CC(C#N)C4)nc3C)ncc2Cl)CC1 (stereo partly drawn) [Example 40, 3-(4-((5-chloro-4-(((1R,4R)-4-(methylamino)cyclo-hexyl)methoxy)py-rimidin-2-yl)amino)-3-methyl-1H-pyrazol-1-yl)cyclobutane-1-carbonitrile]",< 50
15,"CN[C@H]1CC[C@H](COc2nc(Nc3ccc(N4CCOCC4)cc3)ncc2F)CC1 [Example 42, 5-fluoro-4-(((1R,4R)-4-(methylamino)cyclo-hexyl)methoxy)-N-(4-morpholinophenyl) pyrimidin-2-amine]",< 50
16,"CN[C@H]1CC[C@H](COc2nc(Nc3cn(C(C)(C)C#N)nc3C)ncc2F)CC1 [Example 43, 2-(4-((5-fluoro-4-(((1R,4R)-4-(methylamino)cyclo-hexyl)methoxy)py-rimidin-2-yl)amino)-3-methyl-1H-pyrazol-1-yl)-2-methylpropanenitrile]",< 50
17,"CN[C@H]1CC[C@H](COc2nc(Nc3cn(C(C)(C)C#N)nc3C)ncc2C)CC1 [Example 44, 2-methyl-2-(3-methyl-4-((5-methyl-4-(((1R,4R)-4-(methylamino)cyclo-hexyl)methoxy)py-rimidin-2-yl)amino)-1H-pyrazol-1-yl)propanenitrile]",< 50

# Results, then the compound that gave them:
row,IC50 [nM],Compound
1,< 50,"NC[C@H]1CC[C@H](COc2ccnc(Nc3ccc(N4CCOCC4)cc3)n2)CC1 [Example 12, 4-(((1R,4R)-4-(aminomethyl)cyclohexyl)methoxy)-N-(4-morpholinophenyl) pyrimidin-2-amine]"
2,< 50,"COc1cnc(Nc2ccc(N3CCOCC3)cc2)nc1OC[C@H]1CC[C@H](CN)CC1 [Example 13, 4-(((1R,4R)-4-(aminomethyl)cyclohexyl)methoxy)-5-methoxy-N-(4-morpholinophenyl) pyrimidin-2-amine]"
3,< 50,"NC[C@H]1CC[C@H](COc2nc(Nc3ccc(N4CCOCC4)cc3)ncc2Cl)CC1 [Example 14, 4-(((1R,4R)-4-(aminomethyl)cyclohexyl)methoxy)-5-chloro-N-(4-morpholinophenyl) pyrimidin-2-amine]"
4,< 50,"N[C@H]1CC[C@@H](COc2nc(Nc3ccc(N4CCOCC4)cc3)ncc2Cl)C1 [Example 16, 4-(((1R,3S)-3-aminocyclopentyl)methoxy)-5-chloro-N-(4-morpholinophenyl) pyrimidin-2-amine]"
5,< 50,"Cc1nn(C(C)(C)C#N)cc1Nc1ncc(Cl)c(OCC2(F)CCNCC2)n1 [Example 20, 2-(4-((5-chloro-4-((4-fluoropiperidin-4-yl)methoxy)pyrimidin-2-yl)amino)-3-methyl-1H-pyrazol-1-yl)-2-methylpropanenitrile]"
6,< 50,"Cc1nn(C2CC(C#N)C2)cc1Nc1ncc(Cl)c(OCC2(F)CCNCC2)n1 (stereo not drawn) [Example 21, 3-(4-((5-chloro-4-((4-fluoropiperidin-4-yl)methoxy)pyrimidin-2-yl)amino)-3-methyl-1H-pyrazol-1-yl)cyclobutane-1-carbonitrile]"
7,< 50,"Cc1c(Nc2ncc(Cl)c(OCC3(F)CCNCC3)n2)cnn1C1CC(C#N)C1 (stereo not drawn) [Example 22, 3-(4-((5-chloro-4-((4-fluoropiperidin-4-yl)methoxy)pyrimidin-2-yl)amino)-5-methyl-1H-pyrazol-1-yl)cyclobutane-1-carbonitrile]"
8,< 50,"C[C@@H]1CN(c2ccc(Nc3ncc(F)c(OCC4(F)CCNCC4)n3)cc2)C[C@H](C)O1 [Example 23, N-(4-((2R,6S)-2,6-dimethylmorpholino)phenyl)-5-fluoro-4-((4-fluoropiperidin-4-yl)methoxy) pyrimidin-2-amine]"
9,< 50,"Cc1nn(C(C)(C)C#N)cc1Nc1ncc(F)c(OCC2(F)CCNCC2)n1 [Example 25, 2-(4-((5-fluoro-4-((4-fluoropiperidin-4-yl)methoxy)pyrimidin-2-yl)amino)-3-methyl-1H-pyrazol-1-yl)-2-methylpropanenitrile]"
10,< 50,"Cc1nn(C(C)(C)C#N)cc1Nc1ncc(Cl)c(OCC2CC3(CNC3)C2)n1 [Example 28, 2-(4-((4-((2-azaspiro[3.3]heptan-6-yl)methoxy)-5-chloropyrimidin-2-yl)amino)-3-methyl-1H-pyrazol-1-yl)-2-methylpropanenitrile]"
11,< 50,"Fc1cnc(Nc2ccc(N3CCOCC3)cc2)nc1OCC1CCNCC1(F)F (stereo not drawn) [Example 29, 4-((3,3-difluoropiperidin-4-yl)methoxy)-5-fluoro-N-(4-morpholinophenyl) pyrimidin-2-amine]"
12,< 50,"C[C@@H]1CN(c2ccc(Nc3ncc(F)c(OCC4CCNCC4(F)F)n3)cc2)C[C@H](C)O1 (stereo partly drawn) [Example 30, 4-((3,3-difluoropiperidin-4-yl)methoxy)-N-(4-((2S,6R)-2,6-dimethylmorpholino)phenyl)-5-fluoropyrimidin-2-amine]"
13,< 50,"CN[C@H]1CC[C@H](COc2ccnc(Nc3ccc(N4CCOCC4)cc3)n2)CC1 [Example 31, 4-(((1R,4R)-4-(methylamino)cyclo-hexyl)methoxy)-N-(4-morpholinophenyl) pyrimidin-2-amine]"
14,< 50,"CN[C@H]1CC[C@H](COc2ccnc(Nc3cn(C(C)(C)C#N)nc3C)n2)CC1 [Example 32, 2-methyl-2-(3-methyl-4-((4-(((1R,4R)-4-(methylamino)cyclo-hexyl)methoxy)pyrimidin-2-yl)amino)-1H-pyrazol-1-yl)propanenitrile]"
15,< 50,"CN[C@H]1CC[C@H](COc2nc(Nc3ccc(N4CCOCC4)cc3)ncc2OC)CC1 [Example 35, 5-methoxy-4-(((1R,4R)-4-(methylamino)cyclo-hexyl)methoxy)-N-(4-morpholinophenyl) pyrimidin-2-amine]"
16,< 50,CN[C@H]1CC[C@H](COc2nc(Nc3cc(F)c(C(=O)N4CCOCC4)cc3OC)ncc2OC)CC1 [Example 36]
